Data from US9896423B2, “Deuterium substituted 1-[2-(2,4-dimethyl-phenylsulfanyl)-phenyl]piperazine compound or derivatives thereof, and pharmaceutical composition and use thereof” (Jiangsu Jibeier Pharmaceutical Co. Ltd., priority 2014, dated 2018).
Where “and” joins values, the source holds several entries; their conditions need not be identical. Identical values can stand only once. Counter-ions that a name gives are not always drawn. Like-named read-outs stand apart in the source and are kept apart here.

Assay: Pharmacokinetic test in rats, intravenous injection
Format: in vivo, SD rats
Settings: for concentration at 24 h / concentration at 0.25 h / concentration at 0.5 h / concentration at 1 h / concentration at 2 h / concentration at 3 h: intravenous, 2 mg/kg iv; for concentration at 0.25 h / concentration at 0.5 h / concentration at 1 h / concentration at 2 h / concentration at 3 h: Sprague-Dawley
Procedure: The preferred compound of the present disclosure was assessed in rats for its pharmacokinetic profile.
SD rats, male and female, weighing 150 to 250 g
Mobile phase: 10 mM ammonium formate aqueous solution:methanol=15:85
The ionization source was electrospray ionization source. The detection mode was positive mode. Multiple reaction monitoring (MRM) was used as the scanning mode. The ion reaction for the quantitative analysis was the following: m/z was 305.2\150.0 for XX, and 256.1\167.1 for diphenhydramine (the internal standard).
Four male SD rats were taken. The dosage was calculated as 5 mL/kg body weight and 2 mg/kg. XX or YY was dissolved in DMSO (3% of a total volume) and castor oil (3% of the total volume) was added to the solution, followed by agitating with a vortex mixer. Subsequently, saline was added to the mixture to the total volume to afford the intravenous injection for the rats. The injections were intravenously administered to four male SD rats. Blood from the rats' orbits was collected 3 min, 8 min, 15 min, 30 min, 1 hr, 2 hr, 3 hr, 4 hr, 6 hr, 9 hr, 12 hr and 24 hr later after the injection, respectively.
After the blood collection, the tubes were immediately gently turned upside down at least five times to ensure sufficient mixing, and placed on ice. Heparin was added for anticoagulation. The samples were centrifuged at 8000 rpm for 5 min to separate serum from erythrocyte. The serum was transferred with a pipettor to 2 mL polypropylene (PP) tubes, which were marked with the name of the compound and the time points, and stored in a refrigerator at −40° C. before LC-MS analysis. Samples with high concentrations were diluted with rat blank plasma.
2.5 μL of Meth-H2O and 5 μL of the internal standard solution (20 ng/mL, IS) were added to 50 μL of the plasma. Subsequently, 150 μL of methanol was added to the mixture to precipitate protein and the samples were then centrifuged at 13000 rpm for 5 min. The upper organic phase was taken out, filtrated with a 0.22 μM microporous membrane, and 2 μL of the sample was injected for the LC-MS analysis.

[1] = male, rat, plasma, 2 mg/kg, individual rats, read-out: Concentrations in Plasma of Rats after Intravenous Injection
[2] = male, rat, plasma, 2 mg/kg, mean, read-out: Concentrations in Plasma of Rats after Intravenous Injection, Mean ± SD
[3] = rats, iv 2 mg/kg, individual rats, 2 mg/kg

concentration at 24 h (male, SD, rat, plasma, 2 mg/kg, individual rats, read-out: Concentrations in Plasma of Rats after Intravenous Injection): 3.38 ng/mL
concentration at 24 h (male, SD, rat, plasma, 2 mg/kg, mean, read-out: Concentrations in Plasma of Rats after Intravenous Injection, Mean ± SD): 3.13 ± 0.5 ng/mL
AUC(0-inf) (male, SD, rat, plasma, iv, 2 mg/kg, rats, iv 2 mg/kg, XX n = 4, YY n = 3, read-out: AUC0-∞, Mean ± SD): 482 ± 23.6 ng·h/mL
Cmax (male, SD, rat, plasma, iv, 2 mg/kg, rats, iv 2 mg/kg, XX n = 4, YY n = 3, read-out: Cmax, Mean ± SD): 126 ± 5.68 ng/mL
MRT inf (male, SD, rat, plasma, iv, 2 mg/kg, rats, iv 2 mg/kg, XX n = 4, YY n = 3, read-out: MRT0-∞, Mean ± SD): 6.87 ± 0.84 h
Vd (male, SD, rat, plasma, iv, 2 mg/kg, rats, iv 2 mg/kg, XX n = 4, YY n = 3, read-out: Vz, Mean ± SD): 32.9 ± 9.76 L/kg
half-life (male, SD, rat, plasma, iv, 2 mg/kg, rats, iv 2 mg/kg, XX n = 4, YY n = 3, read-out: t1/2, Mean ± SD (converted)): 5.47 ± 1.49 h
AUC(0-t) (male, SD, rat, plasma, iv, 2 mg/kg, rats, iv 2 mg/kg, individual rats 1-4 (Table 9), read-out: AUC0-1): 462 ng·h/mL
AUC(0-inf) (male, SD, rat, plasma, iv, 2 mg/kg, rats, iv 2 mg/kg, individual rats, read-out: AUC0-∞): 467 ng·h/mL
Cmax (male, SD, rat, plasma, iv, 2 mg/kg, rats, iv 2 mg/kg, individual rats, read-out: Cmax): 134 ng/mL
MRT inf (male, SD, rat, plasma, iv, 2 mg/kg, rats, iv 2 mg/kg, individual rats, read-out: MRT0-∞): 6.59 h
Vd (male, SD, rat, plasma, iv, 2 mg/kg, rats, iv 2 mg/kg, individual rats, read-out: Vz): 23 L/kg
half-life (male, SD, rat, plasma, iv, 2 mg/kg, rats, iv 2 mg/kg, individual rats, read-out: t1/2 (converted)): 3.72 h
AUC(0-t) (male, SD, rat, plasma, iv, 2 mg/kg, rats, iv 2 mg/kg, n = 4 (Table 9), read-out: AUC0-1, Mean ± SD): 461 ± 29.5 ng·h/mL
concentration at 0.25 h [1]: 78.1 ng/mL
concentration at 0.25 h [2]: 77.8 ± 0.78 ng/mL
concentration at 0.5 h [1]: 76.6 ng/mL
concentration at 0.5 h [2]: 75.2 ± 2.61 ng/mL
concentration at 1 h [1]: 72.2 ng/mL
concentration at 1 h [2]: 69.9 ± 3.51 ng/mL
concentration at 2 h [1]: 60.7 ng/mL
concentration at 2 h [2]: 63.2 ± 7.01 ng/mL
concentration at 3 h [1]: 49.6 ng/mL
concentration at 3 h [2]: 47.8 ± 6.6 ng/mL
CL, Mean ± SD (rats, iv 2 mg/kg, XX n = 4, YY n = 3): 4.16 ± 0.20 L/h/k
Cmax [3]: 123.2 ng/mL and 127.2 ng/mL and 121.4 ng/mL
MRT0-∞ [3]: 6.14 h and 6.67 h and 8.08 h
Vz [3]: 29.0 L/kg and 33.4 L/kg and 46.0 L/kg
t1/2 [3]: 5.15 h and 5.66 h and 7.33 h
SMILES: [2H]C([2H])([2H])c1ccc(Sc2ccccc2N2CCNCC2)c(C([2H])([2H])[2H])c1 [XX, 1-{2-[2,4-bis(trideuteriomethyl)phenylsulfanyl]phenyl}piperazine hydrobromic acid salt]
AUC0-1 (rats, iv 2 mg/kg, individual rats 1-4 (Table 9), 2 mg/kg): 492.9 ng·h/mL and 466.0 ng·h/mL and 421.5 ng·h/mL
AUC0-∞ [3]: 512.0 ng·h/mL and 489.7 ng·h/mL and 459.8 ng·h/mL
CL [3]: 42.8 L/h/k and 3.91 L/h/k and 4.09 L/h/k and 4.35 L/h/k
